According to patent US5616684A, “Cyclic peptides and use thereof” (priority 1991, dated 1997):
Non-standard residues stand in square brackets, D forms with d. Residues, ends and D or L forms follow the SMILES beside them. *: point of attachment. NMeW = CN[C@@H](Cc1c[nH]c2ccccc12)C(=O)O; NMeF = CN[C@@H](Cc1ccccc1)C(=O)O; dTle = CC(C)(C)[C@@H](N)C(=O)O; NMeL = CN[C@@H](CC(C)C)C(=O)O; X3 = O=C(Cc1c[nH]c2ccccc12)*; Orn = NCCC[C@H](N)C(=O)O; PhAc = O=C(Cc1ccccc1)*; Sar = CNCC(=O)O

Columns and labels:
[1] = target: T1, endothelin receptor A (ETA) (Sus scrofa, UniProt Q29010); assay: Assay of Affinity for Receptor (1): Binding Activity on ETA Receptor; set-up: key to Binding Activity on ET Receptor (R. act.) ETA: relative binding activity; reference cyclic pentapeptide = 1.0; settings: specific activity, binding activity of cyclo[-D-Glu-Ala-D-aIle-Leu-D-Trp-] taken as 1.0; porcine heart membrane fraction, 125I-labeled endothelin-1, 25° C., 1 hour
T1 construct: A membrane fraction prepared from the porcine heart; from tissue; host or cells: porcine heart membrane fraction
T1 sequence (Q29010 21-427): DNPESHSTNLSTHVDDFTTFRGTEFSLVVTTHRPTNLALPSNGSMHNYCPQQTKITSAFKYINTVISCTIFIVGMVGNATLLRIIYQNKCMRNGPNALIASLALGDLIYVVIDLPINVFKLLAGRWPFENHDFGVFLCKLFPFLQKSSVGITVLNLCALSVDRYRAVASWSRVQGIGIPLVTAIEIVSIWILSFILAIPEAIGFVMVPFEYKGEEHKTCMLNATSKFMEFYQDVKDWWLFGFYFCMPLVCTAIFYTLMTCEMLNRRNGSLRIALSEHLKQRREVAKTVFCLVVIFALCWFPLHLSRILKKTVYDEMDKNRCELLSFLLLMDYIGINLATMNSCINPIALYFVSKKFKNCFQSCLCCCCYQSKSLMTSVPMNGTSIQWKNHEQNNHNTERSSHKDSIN
Description: Assay of Affinity for Receptor (1) . . . Binding Activity on ETA Receptor
A membrane fraction prepared from the porcine heart was diluted to 0.15 mg/ml by using a buffer solution for assay, and 100 μl of the resulting suspension of the membrane fraction was poured into each assay tube to use for assay. To this suspension of the membrane fraction was added 2 μl of 5 nM ^125 I-labeled endothelin-1 solution. Further, 3 μl of a test peptide solution was added thereto, followed by incubation at a temperature of 25° C. for 1 hour. Then, the resulting suspension was diluted with 900 μl of the buffer solution for assay cooled with ice, and thereafter separated into a supernatant and a precipitate by centrifugation at 12,000×g for 10 minutes. Cell membranes and an endothelin receptor A (ETA) embedded therein were contained in the precipitate, and radioactive iodine-labeled endothelin combined with the receptor was also recovered in the precipitate. Accordingly, the amount of radioactive iodine-labeled endothelin combined with the endothelin receptor A (ETA) was determined by measuring the amount of radioactive iodine contained in the precipitate with a gamma-ray counter. The cyclic pentapeptide described in Japanese Patent Application No. 2-413828/1990, cyclo[-D-Glu-Ala-D-aIle-Leu-D-Trp-], was used as a control compound. The numerical value of ETA shown in Table 1 is the value of specific activity, taking the binding activity of this cyclic pentapeptide on the receptor A as 1.0. The binding activity (IC50) of this cyclic pentapeptide on the ETA receptor is 2×10^-6 M.

[2] = test system: ETB receptor (guinea pig kidney crude receptor membrane fraction); assay: ETB Radio Receptor Assay *2; format: binding; settings: relative activity (Example 8 given as 100), 125I-endothelin-1, 37° C., 90 minutes
Description: ETB Radio Receptor Assay *2
In the endothelin radio receptor assay, guinea pigs' kidneys were used. Guinea pigs (Std Hartrey, male 250 g, Japan SLC Ltd.) were made to have a cerebral concussion and sacrificed by bleeding from carotid arteries to pick up the kidneys and removed fat therefrom to prepare the kidneys. The obtained kidneys were sliced and homogenized by politron homogenizer in 20 ml of 50 mM Tris-HCl buffer [pH 7.4; 20 mM NaHCO3, 0.1 mM PMSF (Phenylmethylsulfonyl Fluoride), 1 mM EDTA (Ethylenediaminetetraacetic acid)] per one kidney. The homogenized kidney was applied to a centrifugation at 1,000×g for 15 minutes and the supernatant was further applied to a centrifugation for 20 minutes at 30,000×g. The resulting precipitate was twice washed with 50 mM Tris-HCl buffer (pH 7.4) containing 0.1 mM PMSF, 1 mM EDTA. The resultant was stored at -80 ° C. as a crude receptor membrane fraction and was used as the suspension in the following buffer when necessary.
740 Bq of ^125 I-endothelin-1 (81.4 TBq/mmol, Du Pont, USA) as a radio ligand, the crude membrane fraction (2.1 μg protein) and samples were added to the following buffer. The reaction was performed at 37° C., for 90 minutes in 0.2 ml of the buffer [50 mM Tris-HCl buffer (pH 7.4) containing 0.1 mM PMSF, 1 mM EDTA, 0.2% bovine serum albumin].
The reaction was stopped by fast filtration on a glass filter (GF/B, Wattman, USA) by Cell Harvestor (290 PHD, Cambridge-Technology, Great Britain), and the filter was three times washed with 50 mM Tris-HCl buffer (pH 7.4). Radio activity remained on the filter was assayed by a gamma counter.

CC(C)C[C@@H]1NC(=O)[C@@H](CC(C)C)NC(=O)[C@H](CC(=O)O)NC(=O)[C@H](CC(C)C)N(C)C(=O)[C@@H](CC(=O)O)NC(=O)[C@@H](Cc2c[nH]c3ccccc23)NC1=O [Example 47, Cyclo[--D--Asp--N--MeLeu--Asp--D--Leu--Leu--D--Trp--]] (cyclo(D[dL]L[dW][dD][NMeL]))
Binding Activity on ET Receptor (R. act.) ETA [1]: 6.8 | Binding Activity on ET Receptor (R. act.) ET8 *2 [2]: 17

CC(C)C[C@@H]1NC(=O)[C@@H](CC(C)C)NC(=O)[C@H](CC(=O)O)NC(=O)[C@H](Cc2c[nH]c3ccccc23)N(C)C(=O)[C@@H](CC(=O)O)NC(=O)[C@@H](Cc2c[nH]c3ccccc23)NC1=O [Example 67, Cyclo[--D--Asp--N--MeTrp--Asp--D--Leu--Leu--D--Trp--]] (cyclo(D[dL]L[dW][dD][NMeW]))
Binding Activity on ET Receptor (R. act.) ETA [1]: 9.1 | Binding Activity on ET Receptor (R. act.) ET8 *2 [2]: 30

CC(C)C[C@@H]1NC(=O)[C@@H](CC(C)C)NC(=O)[C@H](CC(=O)O)NC(=O)[C@H](Cc2ccccc2)N(C)C(=O)[C@@H](CC(=O)O)NC(=O)[C@@H](Cc2c[nH]c3ccccc23)NC1=O [Example 48, Cyclo[--D--Asp--N--MePhe--Asp--D--Leu--Leu--D--Trp--]] (cyclo(D[dL]L[dW][dD][NMeF]))
Binding Activity on ET Receptor (R. act.) ETA [1]: 2.7 | Binding Activity on ET Receptor (R. act.) ET8 *2 [2]: 13

CC(C)C[C@@H]1NC(=O)[C@@H](CC(C)C)NC(=O)[C@H](CC(=O)O)NC(=O)[C@H](Cc2c[nH]c3ccccc23)NC(=O)[C@@H](CC(=O)O)NC(=O)[C@@H](Cc2cn(C)c3ccccc23)NC1=O [Example 95, Cyclo[--D--Asp--Trp--Asp--D--Leu--Leu--D--Trp(Me)--]]
Binding Activity on ET Receptor (R. act.) ETA [1]: 110 | Binding Activity on ET Receptor (R. act.) ET8 *2 [2]: 330

CC(C)C[C@@H]1NC(=O)[C@@H](CC(C)C)NC(=O)[C@H](CC(=O)O)NC(=O)[C@H](CC(C)C)NC(=O)[C@@H](CC(=O)O)NC(=O)[C@@H](Cc2c[nH]c3ccccc23)NC1=O [Example 18, Cyclo[--D--Asp--Leu--Asp--D--Leu--Leu--D--Trp--]] (cyclo(D[dL]L[dW][dD]L))
Binding Activity on ET Receptor (R. act.) ETA [1]: 13 | Binding Activity on ET Receptor (R. act.) ET8 *2 [2]: 2.2

CC(C)C[C@@H]1NC(=O)[C@@H](CC(C)C)NC(=O)[C@@H]2CCCN2C(=O)[C@H](CC(=O)O)NC(=O)[C@@H](CC(=O)O)NC(=O)[C@@H](Cc2c[nH]c3ccccc23)NC1=O [Example 30, Cyclo[--D--Asp--Asp--Pro--D--Leu--Leu--D--Trp--]] (cyclo(DP[dL]L[dW][dD]))
Binding Activity on ET Receptor (R. act.) ETA [1]: 4.4 | Binding Activity on ET Receptor (R. act.) ET8 *2 [2]: 9.1

CC(C)C[C@@H]1NC(=O)[C@@H](CC(C)C)NC(=O)[C@H](CC(=O)O)NC(=O)[C@H](C(C)C)NC(=O)[C@@H](CC(=O)O)NC(=O)[C@@H](Cc2c[nH]c3ccccc23)NC1=O [Example 17, Cyclo[--D--Asp--Val--Asp--D--Leu--Leu--D--Trp--]] (cyclo(D[dL]L[dW][dD]V))
Binding Activity on ET Receptor (R. act.) ETA [1]: 3.7 | Binding Activity on ET Receptor (R. act.) ET8 *2 [2]: 22

CC(C)C[C@@H]1NC(=O)[C@@H](C(C)(C)C)NC(=O)[C@H](CC(=O)O)NC(=O)[C@H](Cc2c[nH]c3ccccc23)NC(=O)[C@@H](CC(=O)O)NC(=O)[C@@H](Cc2c[nH]c3ccccc23)NC1=O [Example 53, cyclo[-D-Asp-Trp-Asp-D-tLeu-Leu-D-Trp-]] (cyclo(D[dTle]L[dW][dD]W))
Binding Activity on ET Receptor (R. act.) ETA [1]: 64 | Binding Activity on ET Receptor (R. act.) ET8 *2 [2]: 460

CC(C)C[C@@H]1NC(=O)[C@@H](CC(C)C)NC(=O)[C@H](CC(=O)O)NC(=O)[C@H](Cc2c[nH]cn2)NC(=O)[C@@H](CC(=O)O)NC(=O)[C@@H](Cc2c[nH]c3ccccc23)NC1=O [Example 83, Cyclo[--D--Asp--His--Asp--D--Leu--Leu--D--Trp--]] (cyclo(D[dL]L[dW][dD]H))
Binding Activity on ET Receptor (R. act.) ETA [1]: 15 | Binding Activity on ET Receptor (R. act.) ET8 *2 [2]: 43

CC(C)C[C@@H]1NC(=O)[C@H](CC(=O)O)NC(=O)[C@@H](CC(=O)O)NC(=O)[C@@H](Cc2c[nH]c3ccccc23)NC(=O)[C@H](CC(C)C)NC(=O)[C@@H](CC(C)C)NC1=O [Example 32, Cyclo[--D--Asp--Asp--Leu--D--Leu--Leu--D--Trp--]] (cyclo(DL[dL]L[dW][dD]))
Binding Activity on ET Receptor (R. act.) ETA [1]: 4.0 | Binding Activity on ET Receptor (R. act.) ET8 *2 [2]: 7.7

CC(C)C[C@@H]1NC(=O)[C@@H](CC(C)C)NC(=O)[C@H](CC(=O)O)NC(=O)[C@H]2CCCN2C(=O)[C@@H](CC(=O)O)NC(=O)[C@@H](Cc2c[nH]c3ccccc23)NC1=O [Example 24, Cyclo[--D--Asp--D--Pro--Asp--D--Leu--Leu--D--Trp--]] (cyclo(D[dL]L[dW][dD][dP]))
Binding Activity on ET Receptor (R. act.) ETA [1]: 1.7

Cyclo[--D--Asp--D,L-Tic--Asp--D--Leu--Leu--D--Trp--] [Example 86]
Binding Activity on ET Receptor (R. act.) ETA [1]: 38 | Binding Activity on ET Receptor (R. act.) ET8 *2 [2]: 240

CC(C)C[C@@H]1NC(=O)[C@@H](CC(C)C)NC(=O)[C@H](CC(=O)O)NC(=O)[C@H](CCCNC(=O)Cc2ccccc2)NC(=O)[C@@H](CC(=O)O)NC(=O)[C@@H](Cc2c[nH]c3ccccc23)NC1=O [Example 80, cyclo[-D-Asp-Orn(COCH2 Ph)-AsP-D-Leu-Leu-D-Trp-]] (cyclo(D[dL]L[dW][dD][Orn](PhAc)))
Binding Activity on ET Receptor (R. act.) ETA [1]: 260 | Binding Activity on ET Receptor (R. act.) ET8 *2 [2]: 380

CC(C)C[C@@H]1NC(=O)[C@@H](CC(C)C)NC(=O)[C@H](CC(=O)O)NC(=O)[C@H](CCCNC(=O)Cc2c[nH]c3ccccc23)NC(=O)[C@@H](CC(=O)O)NC(=O)[C@@H](Cc2c[nH]c3ccccc23)NC1=O [Example 82, cyclo[-D-Asp-Orn(COCH2 -Ind)-Asp-D-Leu-Leu-D-Trp-]] (cyclo(D[dL]L[dW][dD][Orn](X3)))
Binding Activity on ET Receptor (R. act.) ETA [1]: 240 | Binding Activity on ET Receptor (R. act.) ET8 *2 [2]: 500

CC(C)C[C@@H]1NC(=O)[C@@H](CC(C)C)NC(=O)[C@H](Cc2c[nH]c3ccccc23)NC(=O)[C@H](CC(=O)O)NC(=O)[C@@H](CC(=O)O)NC(=O)[C@@H](Cc2c[nH]c3ccccc23)NC1=O [Example 33, Cyclo[--D--Asp--Asp--Trp--D--Leu--Leu--D--Trp--]] (cyclo(DW[dL]L[dW][dD]))
Binding Activity on ET Receptor (R. act.) ETA [1]: 2.9 | Binding Activity on ET Receptor (R. act.) ET8 *2 [2]: 5.6

CC(C)C[C@@H]1NC(=O)[C@@H](CC(C)C)NC(=O)[C@H](CC(=O)O)NC(=O)CN(C)C(=O)[C@@H](CC(=O)O)NC(=O)[C@@H](Cc2c[nH]c3ccccc23)NC1=O [Example 46, Cyclo[--D--Asp--Sar--Asp--D--Leu--Leu--D--Trp--]] (cyclo(D[dL]L[dW][dD][Sar]))
Binding Activity on ET Receptor (R. act.) ETA [1]: 8.1 | Binding Activity on ET Receptor (R. act.) ET8 *2 [2]: 75
